# Data published in ChEMBL document CHEMBL5352436, “Triterpenoid pyrazines and pyridines - Synthesis, cytotoxicity, mechanism of action, preparation of prodrugs” (Eur J Med Chem, 2022).
# Activity calls are given as the source filed them. The rule behind the calls is not given here.
# Key:
# HCT-116 [1] = assay: Antitumor activity in human HCT-116 cells cultured as spheroids assessed as inhibition of cell growth at 10 uM incubated for 3 days; assay type: functional; design: scale not given: the % may be the effect or the level left; details: time 3 day
# CCRF-CEM [2] = assay: Induction of apoptosis in human CCRF-CEM cells assessed as viable cells at 5 times IC50 incubated for 24 hrs by Annexin V and propidium iodide staining based flow cytometry analysis […]; assay type: functional
# [3] = Cytotoxicity against human BJ cells assessed as reduction in cell viability incubated for 72 hrs by MTS assay; assay type: toxicity, cell-based
# CCRF-CEM [4] = assay: Induction of apoptosis in human CCRF-CEM cells assessed as necrotic cells at 5 times IC50 incubated for 24 hrs by Annexin V and propidium iodide staining based flow cytometry analysis […]; assay type: functional
# [5] = Stability in human liver microsomes assessed as compound remaining at 2 uM measured at 60 mins in presence of NADPH by RF-MS analysis; assay type: ADME, Microsome; details: read-out: Stability
# [6] = Apparent permeability of the compound in MDCK-MDR1 cells assessed as drug recovery at 10 uM incubated for 1 hr by RF-MS analysis; assay type: ADME, cell-based, Canis lupus familiaris; details: dog, read-out: Drug recovery
# CCRF-CEM [7] = assay: Induction of apoptosis in human CCRF-CEM cells assessed as early apoptotic cells at 1 time IC50 incubated for 24 hrs by Annexin V and propidium iodide staining based flow cytometry analysis (reference value: […]); assay type: functional
# CCRF-CEM [8] = assay: Induction of apoptosis in human CCRF-CEM cells assessed as viable cells at 1 time IC50 incubated for 24 hrs by Annexin V and propidium iodide staining based flow cytometry analysis […]; assay type: functional
# [9] = Stability in human plasma assessed as compound remaining at 2 uM measured at 15 mins by RF-MS analysis; assay type: ADME, cell-free; details: read-out: Stability
# [10] = Stability in human plasma assessed as compound remaining at 2 uM measured at 60 mins by RF-MS analysis; assay type: ADME, cell-free; details: read-out: Stability
# [11] = Cytotoxicity against human MRC5 cells assessed as reduction in cell viability incubated for 72 hrs by MTS assay; assay type: toxicity, cell-based
# CCRF-CEM [12] = assay: Induction of apoptosis in human CCRF-CEM cells assessed as increase in Noxa expression at 1 to 5 times IC50 incubated for 24 hrs by Western blot analysis; assay type: functional, cell-based
# [13] = Cytotoxicity against human K562-Tax cells assessed as reduction in cell viability incubated for 72 hrs by MTS assay; assay type: functional, cell-based
# [14] = Stability in human plasma assessed as compound remaining at 2 uM measured at 30 mins by RF-MS analysis; assay type: ADME, cell-free; details: read-out: Stability
# CCRF-CEM [15] = assay: Induction of apoptosis in human CCRF-CEM cells assessed as necrotic cells at 1 time IC50 incubated for 24 hrs by Annexin V and propidium iodide staining based flow cytometry analysis (reference value: 0.0%); assay type: functional
# [16] = Chemical stability in PBS buffer at pH 7.4 assessed as compound remaining measured at 15 mins by RF-MS analysis; assay type: physicochemical; details: read-out: Stability
# HeLa = assay: Antitumor activity in human HeLa cells cultured as spheroids assessed as inhibition of spheroid opening at 1 uM incubated for 3 days; assay type: functional, cell-based; details: time 3.0 day
# [17] = Efflux ratio of apparent permeability across basolateral to apical side over apical to basolateral side in MDCK-MDR1 cells; assay type: ADME, cell-based, Canis lupus familiaris; details: dog
# [18] = Plasma protein binding in human at 10 uM by rapid equilibrium dialysis based RF-MS analysis; assay type: ADME, cell-free; details: read-out: PB (converted)
# CCRF-CEM [19] = assay: Cytotoxicity against human CCRF-CEM cells assessed as reduction in cell viability incubated for 72 hrs by MTS assay; assay type: functional, cell-based
# [20] = Cytotoxicity against human HCT116-p53-null cells assessed as reduction in cell viability incubated for 72 hrs by MTS assay; assay type: functional, cell-based
# [21] = Stability in human liver microsomes assessed as compound remaining at 2 uM measured at 30 mins in presence of NADPH by RF-MS analysis; assay type: ADME, Microsome; details: read-out: Stability
# CCRF-CEM [22] = assay: Induction of apoptosis in human CCRF-CEM cells assessed as accumulation of Bid protein expression at 1 to 5 times IC50 incubated for 24 hrs by Western blot analysis; assay type: functional, cell-based
# CCRF-CEM [23] = assay: Induction of apoptosis in human CCRF-CEM cells assessed as late apoptotic cells at 1 time IC50 incubated for 24 hrs by Annexin V and propidium iodide staining based flow cytometry analysis (reference value: […]); assay type: functional
# [24] = Stability in human plasma assessed as compound remaining at 2 uM measured at 120 mins by RF-MS analysis; assay type: ADME, cell-free; details: read-out: Stability
# A549 = assay: Cytotoxicity against human A549 cells assessed as reduction in cell viability incubated for 72 hrs by MTS assay; assay type: functional, cell-based; details: A549, 72 h
# [25] = Chemical stability in PBS buffer at pH 7.4 assessed as compound remaining measured at 30 mins by RF-MS analysis; assay type: physicochemical; details: read-out: Stability
# CEM-DNR = assay: Cytotoxicity against human CEM-DNR cells assessed as reduction in cell viability incubated for 72 hrs by MTS assay; assay type: functional, cell-based
# HCT-116 [26] = assay: Cytotoxicity against human HCT-116 cells assessed as reduction in cell viability incubated for 72 hrs by MTS assay; assay type: functional, cell-based; details: HCT-116, 72 h
# CCRF-CEM [27] = assay: Induction of apoptosis in human CCRF-CEM cells assessed as accumulation of Bax protein expression at 1 to 5 times IC50 incubated for 24 hrs by Western blot analysis; assay type: functional, cell-based
# [28] = Apparent permeability of the compound in MDCK-MDR1 cells at 10 uM incubated for 1 hr by RF-MS analysis; assay type: ADME, cell-based, Canis lupus familiaris; details: dog
# U2OS = assay: Cytotoxicity against human U2OS cells assessed as reduction in cell viability incubated for 72 hrs by MTS assay; assay type: functional, cell-based
# CCRF-CEM [29] = assay: Induction of apoptosis in human CCRF-CEM cells assessed as late apoptotic cells at 5 times IC50 incubated for 24 hrs by Annexin V and propidium iodide staining based flow cytometry analysis […]; assay type: functional
# [30] = Chemical stability in PBS buffer at pH 7.4 assessed as compound remaining measured at 60 mins by RF-MS analysis; assay type: physicochemical; details: read-out: Stability
# [31] = Chemical stability in PBS buffer at pH 7.4 assessed as compound remaining measured at 120 mins by RF-MS analysis; assay type: physicochemical; details: read-out: Stability
# CCRF-CEM [32] = assay: Induction of apoptosis in human CCRF-CEM cells assessed as early apoptotic cells at 5 times IC50 incubated for 24 hrs by Annexin V and propidium iodide staining based flow cytometry analysis […]; assay type: functional
# CCRF-CEM [33] = assay: Induction of apoptosis in human CCRF-CEM cells assessed as decrease in c-Myc expression at 1 to 5 times IC50 incubated for 24 hrs by Western blot analysis; assay type: functional, cell-based
# [34] = Stability in human liver microsomes assessed as compound remaining at 2 uM measured at 15 mins in presence of NADPH by RF-MS analysis; assay type: ADME, Microsome; details: read-out: Stability
# K562 = assay: Cytotoxicity against human K562 cells assessed as reduction in cell viability incubated for 72 hrs by MTS assay; assay type: functional, cell-based; details: K562, 72 h
# CCRF-CEM [35] = assay: Induction of apoptosis in human CCRF-CEM cells assessed as PARP cleavage at 1 to 5 times IC50 incubated for 24 hrs by Western blot analysis; assay type: functional, cell-based
Compound,IC50 at 72 h [3] [nM],"remaining at 1 h, 2 µM [5] [%]","recovery at 1 h, 10 µM [6] [%]","remaining at 0.25 h, 2 µM [9] [%]","remaining at 1 h, 2 µM [10] [%]",IC50 at 72 h [11] [nM],IC50 [13] [nM],"remaining at 0.5 h, 2 µM [14] [%]",remaining at 0.25 h [16] [%],efflux ratio [17],fraction unbound at 10 µM [18],IC50 (CCRF-CEM [19]) [nM],IC50 [20] [nM],"remaining at 0.5 h, 2 µM [21] [%]","remaining at 2 h, 2 µM [24] [%]",IC50 (A549) [nM],remaining at 0.5 h [25] [%],IC50 (CEM-DNR) [nM],IC50 (HCT-116 [26]) [nM],"Papp at 1 h, 10 µM [28] [×10⁻⁶ cm/s]",also measured
C=C(C=O)[C@@H]1CC[C@]2(C(=O)OCc3cn([C@H]4O[C@H](COC(C)=O)[C@@H](OC(C)=O)[C@H](OC(C)=O)[C@H]4OC(C)=O)nn3)CC[C@]3(C)[C@H](CC[C@@H]4[C@@]5(C)Cc6nccnc6C(C)(C)[C@@H]5CC[C@]43C)[C@@H]12 (stereo in doubt),2300,58.9,77.6,104,88.7,1800,2700,97.2,99.9,4.49,0.0017,750,1700,95.7,88.5,1800,91.1,1500,1500,0.12,"Activity (HCT-116 [1]): 100%; Activity (CCRF-CEM [2]): 5.3%; Activity (CCRF-CEM [4]): 1%; Activity (CCRF-CEM [7]): 53.8%; Activity (CCRF-CEM [8]): 18.1%; Activity (CCRF-CEM [12]): Active; Activity (CCRF-CEM [15]): 4.1%; Activity (HeLa): Active; Activity (CCRF-CEM [22]): Active; Activity (CCRF-CEM [23]): 23.9%; Activity (CCRF-CEM [27]): Active; IC50 (U2OS): 1600 nM; Activity (CCRF-CEM [29]): 37.7%; remaining at 1 h [30]: 87.8%; remaining at 2 h [31]: 85.2%; Activity (CCRF-CEM [32]): 56%; Activity (CCRF-CEM [33]): Active; remaining at 0.25 h, 2 µM [34]: 96.8%; IC50 (K562): 1200 nM; Activity (CCRF-CEM [35]): Active"
C=C(C)[C@@H]1CC[C@]2(C(=O)OCc3cn([C@H]4O[C@H](COC(C)=O)[C@@H](OC(C)=O)[C@H](OC(C)=O)[C@H]4OC(C)=O)nn3)CC[C@]3(C)[C@H](CC[C@@H]4[C@@]5(C)Cc6nccnc6C(C)(C)[C@@H]5CC[C@]43C)[C@@H]12 (stereo in doubt),> 50000,97.8,87.7,98.7,88,> 50000,> 50000,91.2,98.9,7.1,0.107,> 50000,> 50000,98.3,87.1,> 50000,99.5,49000,> 50000,1.67,"IC50 (U2OS): > 50000 nM; remaining at 1 h [30]: 92.1%; remaining at 2 h [31]: 92.9%; remaining at 0.25 h, 2 µM [34]: 99.3%; IC50 (K562): > 50000 nM"
C=C(C=O)[C@@H]1CC[C@]2(C(=O)OCc3cn([C@H]4O[C@H](COC(C)=O)[C@@H](OC(C)=O)[C@H](OC(C)=O)[C@H]4OC(C)=O)nn3)CC[C@]3(C)[C@H](CC[C@@H]4[C@@]5(C)CC[C@H](O)C(C)(C)[C@@H]5CC[C@]43C)[C@@H]12,1800,66.6,103,93.9,87,1700,1600,88.7,97.1,3.77,0.0015,600,1700,82.7,82.3,1800,92.5,1600,1600,0.32,"Activity (HCT-116 [1]): 100%; Activity (HeLa): Active; IC50 (U2OS): 1700 nM; remaining at 1 h [30]: 89.2%; remaining at 2 h [31]: 83.8%; remaining at 0.25 h, 2 µM [34]: 95.6%; IC50 (K562): 1400 nM"
C=C(C)[C@@H]1CC[C@]2(C(=O)OCc3cn([C@H]4O[C@H](COC(C)=O)[C@@H](OC(C)=O)[C@H](OC(C)=O)[C@H]4OC(C)=O)nn3)CC[C@]3(C)[C@H](CC[C@@H]4[C@@]5(C)CC[C@H](O)C(C)(C)[C@@H]5CC[C@]43C)[C@@H]12,> 50000,97,77,94.3,87.8,> 50000,> 50000,92.2,98.5,5.61,0.0044,> 50000,> 50000,98.8,83.4,> 50000,92.7,> 50000,> 50000,0.28,"IC50 (U2OS): > 50000 nM; remaining at 1 h [30]: 82.3%; remaining at 2 h [31]: 77.9%; remaining at 0.25 h, 2 µM [34]: 99%; IC50 (K562): > 50000 nM"
